{"source": "patent US3933859A", "about": "“Dihydrocoumarin derivatives” (Hoffmann-La Roche, Inc., priority 1970, dated 1976)", "key": {"[1]": {"test": "LD50 of the hydrochloride", "details": "in vivo", "description": "(§1) The novel compounds of formulae VII and VIII and their salts are useful for lowering the blood-pressure and for chemical sympathectomy. Thus, for example, after orally administering five separate doses each comprising 300 μmol/kg of L-6,7-diacetoxy-3-amino-hydrocoumarin hydrochloride to rats over a period of 48 hours, the noradrenaline content is lowered in the heart to 28% and in the brain to 85% of the controls. The LD50 of this hydrochloride amounts to 30-60 mg/kg i.v., 250-500 mg/kg s.c. and 1,000-2,000 mg/kg p.o."}, "noradrenaline": {"tested_on": "noradrenaline", "test": "noradrenaline content lowering after oral administration to rats", "type": "in vivo, rat", "details": "five separate oral doses each 300 μmol/kg over 48 hours", "description": "as §1"}}, "note": "Counter-ions that a name gives are not always drawn."}
{"smiles": "CC(=O)Oc1cc2c(cc1OC(C)=O)OC(=O)[C@@H](N)C2", "note": "[L-6,7-diacetoxy-3-aminohydrocoumarin hydrochloride]", "values": [{"measurement": "LD50", "setting": "[1]; iv", "value": "30 to 60", "unit": "mg/kg"}, {"measurement": "LD50", "setting": "[1]; po", "value": "1000 to 2000", "unit": "mg/kg"}, {"measurement": "LD50", "setting": "[1]; sc", "value": "250 to 500", "unit": "mg/kg"}, {"measurement": "noradrenaline content in the brain, lowered to % of the controls", "setting": "noradrenaline; brain", "value": 85, "unit": "%"}, {"measurement": "noradrenaline content in the heart, lowered to % of the controls", "setting": "noradrenaline; heart", "value": 28, "unit": "%"}]}
